Test results taken from the NIST ThermoML archive (doi:10.1021/acs.jced.5b00011).
± gives the expanded uncertainty stated by the source. Each block holds one compound with its values, some of them ahead of it.

Settings: Liquid, Ebulliometric method (Recirculating still)

vapor or sublimation pressure (353.85 K): 101.33 ± 0.55 kPa
SMILES: C1CCCCC1 [cyclohexane]

vapor or sublimation pressure (356.15 K): 101.33 ± 0.55 kPa
SMILES: C1=CCCCC1 [cyclohexene]

vapor or sublimation pressure (439.25 K): 101.33 ± 0.58 kPa
SMILES: CC(=O)N(C)C [N,N-dimethylethanamide]

vapor or sublimation pressure (353.25 K): 101.33 ± 0.55 kPa
SMILES: c1ccccc1 [benzene]
